IC50 data for 33 molecules are collected here from patent US10428083B2, “Heterocyclylmethyl-thienouracile as antagonists of the adenosine-A2B-receptor” (BAYER PHARMA AKTIENGESELLSCHAFT, priority 2015, dated 2019).

The experiment concerns the target human adenosine A2b receptor (Homo sapiens (Human), UniProt P29275). Description: Cellular in vitro reporter gene test for A2b receptor activity (CHO-K1, CRE-luciferase, NECA stimulation). The class given is cell-based. The conditions noted are these: recombinant CHO-K1 cell line, CRE-luciferase reporter, antagonism of EC50 concentration of NECA; in some cases means of several determinations, rounded to two significant figures; read-out: A2b receptor IC50. In a few lines: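 CHO-K1 cells with CRE-driven luciferase; antagonists co-incubated with NECA at its EC50, determined in a pre-experiment on each test day. Luciferase read by luminescence 3 h after NECA addition.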
(In general: A reporter such as luciferase makes a cellular process visible.)

Chain of human adenosine A2b receptor (P29275 whole entry): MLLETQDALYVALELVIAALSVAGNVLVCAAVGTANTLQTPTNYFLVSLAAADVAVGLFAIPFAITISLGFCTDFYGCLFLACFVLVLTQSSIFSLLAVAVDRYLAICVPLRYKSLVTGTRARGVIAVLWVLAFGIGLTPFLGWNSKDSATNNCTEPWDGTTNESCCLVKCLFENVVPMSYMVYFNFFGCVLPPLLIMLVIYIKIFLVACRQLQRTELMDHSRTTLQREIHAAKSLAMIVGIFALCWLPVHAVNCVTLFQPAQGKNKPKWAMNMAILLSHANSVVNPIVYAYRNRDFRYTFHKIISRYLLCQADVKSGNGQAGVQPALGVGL

As usually defined, the IC50 is the point on the concentration scale where inhibition reaches its midpoint. For `Cc1c(CN2CCNC2=S)sc2c1c(=O)n(CC(C)C)c(=O)n2CCC(F)(F)F` [Example 38, 3-Isobutyl-5-methyl-6-[(2-thioxoimidazolidin-1-yl)methyl]-1-(3,3,3-trifluoropropyl)thieno[2,3-d]pyrimidine-2,4(1H,3H)-dione], the IC50 turned out to be 1.9 nM.
With `COCCn1c(=O)n(CC(C)C)c(=O)c2c(C)c(CN3CCNC3=S)sc21` [Example 39, 3-Isobutyl-1-(2-methoxyethyl)-5-methyl-6-[(2-thioxoimidazolidin-1-yl)methyl]thieno[2,3-d]pyrimidine-2,4(1H,3H)-dione] the figure was 3.6 nM.
With `Cc1c(CN2CCNC2=S)sc2c1c(=O)n(CC(F)(F)F)c(=O)n2CCCF` [Example 40, 1-(3-Fluoropropyl)-5-methyl-6-[(2-thioxoimidazolidin-1-yl)methyl]-3-(2,2,2-trifluoroethyl)thieno[2,3-d]pyrimidine-2,4(1H,3H)-dione] the figure was 7 nM; with `COCCn1c(=O)n(CC(F)(F)F)c(=O)c2c(C)c(CN3CCNC3=S)sc21` [Example 41, 1-(2-Methoxyethyl)-5-methyl-6-[(2-thioxoimidazolidin-1-yl)methyl]-3-(2,2,2-trifluoroethyl)thieno[2,3-d]pyrimidine-2,4(1H,3H)-dione], 12 nM; with `Cc1c(CN2CCNC2=S)sc2c1c(=O)n(CC(F)F)c(=O)n2CCCF` [Example 42, 3-(2,2-Difluoroethyl)-1-(3-fluoropropyl)-5-methyl-6-[(2-thioxoimidazolidin-1-yl)methyl]thieno[2,3-d]pyrimidine-2,4(1H,3H)-dione], 11 nM.
To `COCCn1c(=O)n(CC(F)F)c(=O)c2c(C)c(CN3CCNC3=S)sc21` [Example 43] belongs 7.7 nM.
As for `CCn1c(=O)c2c(C(F)F)c(CN3CCNC3=S)sc2n(CCC(F)(F)F)c1=O` [Example 44, 5-(Difluoromethyl)-3-ethyl-6-[(2-thioxoimidazolidin-1-yl)methyl]-1-(3,3,3-trifluoropropyl)thieno[2,3-d]pyrimidine-2,4(1H,3H)-dione], the IC50 turned out to be 5.2 nM.
With `CCn1c(=O)c2c(C(F)F)c(CN3CCNC3=S)sc2n(CCOC)c1=O` [Example 45, 5-(Difluoromethyl)-3-ethyl-1-(2-methoxyethyl)-6-[(2-thioxoimidazolidin-1-yl)methyl]thieno[2,3-d]pyrimidine-2,4(1H,3H)-dione] the figure was 12 nM; with `COCCn1c(=O)n(CC(C)C)c(=O)c2c(C)c(CN3CCN(C=O)C3=S)sc21` [Example 46, 3-{[3-Isobutyl-1-(2-methoxyethyl)-5-methyl-2,4-dioxo-1,2,3,4-tetrahydrothieno[2,3-d]pyrimidin-6-yl]methyl}-2-thioxoimidazolidine-1-carbaldehyde], 29 nM.
To `CCn1c(=O)c2c(C)c(CN3CCNC3=O)sc2n(CC(F)(F)F)c1=O` [Example 47, 3-Ethyl-5-methyl-6-[(2-oxoimidazolidin-1-yl)methyl]-1-(2,2,2-trifluoroethyl)thieno[2,3-d]pyrimidine-2,4(1H,3H)-dione] belongs 14 nM.
To `CCn1c(=O)c2c(C)c(CN3CCNC3=O)sc2n(CCC(F)(F)F)c1=O` [Example 48, 3-Ethyl-5-methyl-6-[(2-oxoimidazolidin-1-yl)methyl]-1-(3,3,3-trifluoropropyl)thieno[2,3-d]pyrimidine-2,4(1H,3H)-dione] belongs 1.4 nM; to `CCn1c(=O)c2c(C)c(CN3CCNC3=O)sc2n(CCCC(F)(F)F)c1=O` [Example 49, 3-Ethyl-5-methyl-6-[(2-oxoimidazolidin-1-yl)methyl]-1-(4,4,4-trifluorobutyl)thieno[2,3-d]pyrimidine-2,4(1H,3H)-dione], 2.5 nM; to `CCn1c(=O)c2c(C)c(CN3CCNC3=O)sc2n(CCF)c1=O` [Example 50, 3-Ethyl-1-(2-fluoroethyl)-5-methyl-6-[(2-oxoimidazolidin-1-yl)methyl]thieno[2,3-d]pyrimidine-2,4(1H,3H)-dione], 4.6 nM.
Turning to `CCn1c(=O)c2c(C)c(CN3CCNC3=O)sc2n(CCCF)c1=O` [Example 51, 3-Ethyl-1-(3-fluoropropyl)-5-methyl-6-[(2-oxoimidazolidin-1-yl)methyl]thieno[2,3-d]pyrimidine-2,4(1H,3H)-dione], the half-maximal inhibitory concentration (IC50) was 12 nM.
To `CCn1c(=O)c2c(C)c(CN3CCNC3=O)sc2n(CCCCF)c1=O` [Example 52, 3-Ethyl-1-(4-fluorobutyl)-5-methyl-6-[(2-oxoimidazolidin-1-yl)methyl]thieno[2,3-d]pyrimidine-2,4(1H,3H)-dione] belongs 6.6 nM; to `C=C(Cn1c(=O)n(CC)c(=O)c2c(C)c(CN3CCNC3=O)sc21)C(F)(F)F` [Example 53, 3-Ethyl-5-methyl-6-[(2-oxoimidazolidin-1-yl)methyl]-1-[2-(trifluoromethyl)prop-2-en-1-yl]thieno[2,3-d]pyrimidine-2,4(1H,3H)-dione], 14 nM.
To `CCn1c(=O)c2c(C)c(CN3CCNC3=O)sc2n(CCOC(F)(F)F)c1=O` [Example 57, 3-Ethyl-5-methyl-6-[(2-oxoimidazolidin-1-yl)methyl]-1-[2-(trifluoromethoxy)ethyl]thieno[2,3-d]pyrimidine-2,4(1H,3H)-dione] belongs 0.88 nM.
To `CCn1c(=O)c2c(C)c(CN3CCNC3=O)sc2n(CCSC(F)(F)F)c1=O` [Example 58, 3-Ethyl-5-methyl-6-[(2-oxoimidazolidin-1-yl)methyl]-1-{2-[(trifluoromethyl)sulphanyl]ethyl}thieno[2,3-d]pyrimidine-2,4(1H,3H)-dione] belongs 2.6 nM; to `CCOCCn1c(=O)n(CC)c(=O)c2c(C)c(CN3CCNC3=O)sc21` [Example 60, 1-(2-Ethoxyethyl)-3-ethyl-5-methyl-6-[(2-oxoimidazolidin-1-yl)methyl]thieno[2,3-d]pyrimidine-2,4(1H,3H)-dione], 13 nM.
For `CCn1c(=O)c2c(C)c(CN3CCNC3=O)sc2n(CCOC(C)C)c1=O` [Example 61, 3-Ethyl-1-(2-isopropoxyethyl)-5-methyl-6-[(2-oxoimidazolidin-1-yl)methyl]thieno[2,3-d]pyrimidine-2,4(1H,3H)-dione], the IC50 turned out to be 53 nM.
To `CCn1c(=O)c2c(C)c(CN3CCNC3=O)sc2n(CC2COC2)c1=O` [Example 72, 3-Ethyl-5-methyl-1-(oxetan-3-ylmethyl)-6-[(2-oxoimidazolidin-1-yl)methyl]thieno[2,3-d]pyrimidine-2,4(1H,3H)-dione] belongs 8.1 nM.
With `CCn1c(=O)c2c(C)c(CN3CCNC3=O)sc2n(C)c1=O` [Example 76, 3-Ethyl-1,5-dimethyl-6-[(2-oxoimidazolidin-1-yl)methyl]thieno[2,3-d]pyrimidine-2,4(1H,3H)-dione] the figure was 9.3 nM.
To `CCCn1c(=O)n(CC)c(=O)c2c(C)c(CN3CCNC3=O)sc21` [Example 77, 3-Ethyl-5-methyl-6-[(2-oxoimidazolidin-1-yl)methyl]-1-propylthieno[2,3-d]pyrimidine-2,4(1H,3H)-dione] belongs 5.6 nM.
As to `CCCCn1c(=O)n(CC)c(=O)c2c(C)c(CN3CCNC3=O)sc21` [Example 78, 1-Butyl-3-ethyl-5-methyl-6-[(2-oxoimidazolidin-1-yl)methyl]thieno[2,3-d]pyrimidine-2,4(1H,3H)-dione], the IC50 stood at 1.2 nM.
With `CCn1c(=O)c2c(C)c(CN3CCNC3=O)sc2n(CCC(C)C)c1=O` [Example 79, 3-Ethyl-5-methyl-1-(3-methylbutyl)-6-[(2-oxoimidazolidin-1-yl)methyl]thieno[2,3-d]pyrimidine-2,4(1H,3H)-dione] the figure was 9.9 nM; with `CCn1c(=O)c2c(C)c(CN3CCNC3=O)sc2n(CC2CCC2)c1=O` [Example 80, 1-(Cyclobutylmethyl)-3-ethyl-5-methyl-6-[(2-oxoimidazolidin-1-yl)methyl]thieno[2,3-d]pyrimidine-2,4(1H,3H)-dione], 1.4 nM.
To `CCn1c(=O)c2c(C)c(CN3CCNC3=O)sc2n(CC#N)c1=O` [Example 81, {3-Ethyl-5-methyl-2,4-dioxo-6-[(2-oxoimidazolidin-1-yl)methyl]-3,4-dihydrothieno[2,3-d]pyrimidin-1 (2H)-yl}acetonitrile] belongs 14 nM; to `CCn1c(=O)c2c(C)c(CN3CCNC3=O)sc2n(Cc2nonc2C)c1=O` [Example 82, 3-Ethyl-5-methyl-1-[(4-methyl-1,2,5-oxadiazol-3-yl)methyl]-6-[(2-oxoimidazolidin-1-yl)methyl]thieno[2,3-d]pyrimidine-2,4(1H,3H)-dione], 17 nM; to `CCn1c(=O)c2c(C)c(CN3CCNC3=O)sc2n(CCN(C)C)c1=O` [Example 83, 1-[2-(Dimethylamino)ethyl]-3-ethyl-5-methyl-6-[(2-oxoimidazolidin-1-yl)methyl]thieno[2,3-d]pyrimidine-2,4(1H,3H)-dione], 380 nM.
With `CCCn1c(=O)c2c(C)c(CN3CCNC3=O)sc2n(CCOC)c1=O` [Example 84, 1-(2-Methoxyethyl)-5-methyl-6-[(2-oxoimidazolidin-1-yl)methyl]-3-propylthieno[2,3-d]pyrimidine-2,4(1H,3H)-dione] the figure was 3.9 nM; with `C=CCn1c(=O)c2c(C)c(CN3CCNC3=O)sc2n(CCOC)c1=O` [Example 85, 3-Allyl-1-(2-methoxyethyl)-5-methyl-6-[(2-oxoimidazolidin-1-yl)methyl]thieno[2,3-d]pyrimidine-2,4(1H,3H)-dione], 18 nM.
Consider `Cc1c(CN2CCNC2=O)sc2c1c(=O)n(CC(C)C)c(=O)n2CCC(F)(F)F` [Example 87, 3-Isobutyl-5-methyl-6-[(2-oxoimidazolidin-1-yl)methyl]-1-(3,3,3-trifluoropropyl)thieno[2,3-d]pyrimidine-2,4(1H,3H)-dione], for which the IC50 amounted to 2.3 nM.
To `Cc1c(CN2CCNC2=O)sc2c1c(=O)n(CC(C)C)c(=O)n2CCF` [Example 88, 1-(2-Fluoroethyl)-3-isobutyl-5-methyl-6-[(2-oxoimidazolidin-1-yl)methyl]thieno[2,3-d]pyrimidine-2,4(1H,3H)-dione] belongs 6.7 nM.
